Assay results: ChEMBL document CHEMBL1649220, “New variant of CTX-M-type extended-spectrum beta-lactamases, CTX-M-71, with a Gly238Cys substitution in a Klebsiella pneumoniae isolate from Bulgaria” (2009)
Values after ≈ are worked out from the molar mass of the structure shown.

Columns and labels:
Assay type in all cases: functional
Escherichia coli [1] = test: Antimicrobial activity against Escherichia coli K-12 by agar dilution method
Escherichia coli [2] = test: Antimicrobial activity against Escherichia coli DH5alpha by agar dilution method in presence of beta-lactamase inhibitor clavulanic acid; conditions: DH5[alpha]
Escherichia coli [3] = test: Antimicrobial activity against Escherichia coli DH5[alpha] harboring pBC-CTX-M-71 plasmid by agar dilution method
Escherichia coli [4] = test: Antimicrobial activity against Escherichia coli K-12 by agar dilution method in presence of beta-lactamase inhibitor clavulanic acid
Escherichia coli [5] = test: Antimicrobial activity against Escherichia coli K-12 transconjugant harboring blaCTX-M-71 gene by agar dilution method in presence of beta-lactamase inhibitor clavulanic acid
Escherichia coli [6] = test: Antimicrobial activity against Escherichia coli DH5alpha harboring pBC-CTX-M-15 plasmid by agar dilution method in presence of beta-lactamase inhibitor clavulanic acid; conditions: DH5[alpha]
Escherichia coli [7] = test: Antimicrobial activity against Escherichia coli DH5[alpha] harboring pBC-CTX-M-15 plasmid by agar dilution method
Klebsiella pneumoniae [8] = test: Antimicrobial activity against Klebsiella pneumoniae AH24-270 expressing blaCTX-M-71 gene by agar dilution method
Escherichia coli [9] = test: Antimicrobial activity against Escherichia coli DH5alpha harboring pBC-CTX-M-71 plasmid by agar dilution method in presence of beta-lactamase inhibitor clavulanic acid; conditions: DH5[alpha]
Klebsiella pneumoniae [10] = test: Antimicrobial activity against Klebsiella pneumoniae AH24-270 expressing blaCTX-M-71 gene by agar dilution method in presence of beta-lactamase inhibitor clavulanic acid
Escherichia coli [11] = test: Antimicrobial activity against Escherichia coli K-12 transconjugant harboring blaCTX-M-71 gene by agar dilution method
Escherichia coli [12] = test: Antimicrobial activity against Escherichia coli DH5[alpha] by agar dilution method
Klebsiella pneumoniae [13] = test: Antimicrobial activity against Klebsiella pneumoniae AH24-270 expressing blaCTX-M-71 gene by agar dilution method in presence of beta-lactamase inhibitor Tazobactam
Escherichia coli [14] = test: Antimicrobial activity against Escherichia coli DH5alpha by agar dilution method in presence of beta-lactamase inhibitor Tazobactam; conditions: DH5[alpha]
Escherichia coli [15] = test: Antimicrobial activity against Escherichia coli DH5alpha harboring pBC-CTX-M-71 plasmid by agar dilution method in presence of beta-lactamase inhibitor Tazobactam; conditions: DH5[alpha]
Escherichia coli [16] = test: Antimicrobial activity against Escherichia coli K-12 by agar dilution method in presence of beta-lactamase inhibitor Tazobactam
Escherichia coli [17] = test: Antimicrobial activity against Escherichia coli DH5alpha harboring pBC-CTX-M-15 plasmid by agar dilution method in presence of beta-lactamase inhibitor Tazobactam; conditions: DH5[alpha]
Escherichia coli [18] = test: Antimicrobial activity against Escherichia coli K-12 transconjugant harboring blaCTX-M-71 gene by agar dilution method in presence of beta-lactamase inhibitor Tazobactam

CC1(C)S[C@@H]2[C@H](NC(=O)[C@H](N)c3ccc(O)cc3)C(=O)N2[C@H]1C(=O)O [AMOXICILLIN]
MIC (Escherichia coli [1]): 2 µg/mL (≈ 5.47 µM)
MIC (Escherichia coli [2]): 2 µg/mL
MIC (Escherichia coli [3]): > 512 µg/mL
MIC (Escherichia coli [4]): 2 µg/mL
MIC (Escherichia coli [5]): 64 µg/mL
MIC (Escherichia coli [6]): 8 µg/mL
MIC (Escherichia coli [7]): > 512 µg/mL
MIC (Klebsiella pneumoniae [8]): > 512 µg/mL
MIC (Escherichia coli [9]): 8 µg/mL
MIC (Klebsiella pneumoniae [10]): > 512 µg/mL
MIC (Escherichia coli [11]): > 512 µg/mL
MIC (Escherichia coli [12]): 4 µg/mL (≈ 10.9 µM)

C[C@H]1[C@H](NC(=O)/C(=N\OC(C)(C)C(=O)O)c2csc(N)n2)C(=O)N1S(=O)(=O)O [AZTREONAM]
MIC (Escherichia coli [3]): 8 µg/mL (≈ 18.4 µM)
MIC (Escherichia coli [7]): 64 µg/mL (≈ 147 µM)
MIC (Klebsiella pneumoniae [8]): 128 µg/mL (≈ 294 µM)
MIC (Escherichia coli [11]): 8 µg/mL (≈ 18.4 µM)

CO/N=C(\C(=O)N[C@@H]1C(=O)N2C(C(=O)[O-])=C(C[N+]3(C)CCCC3)CS[C@H]12)c1csc(N)n1 [CEFEPIME]
MIC (Escherichia coli [1]): 0.016 µg/mL (≈ 0.0333 µM)
MIC (Escherichia coli [3]): 4 µg/mL (≈ 8.32 µM)
MIC (Escherichia coli [7]): 16 µg/mL (≈ 33.3 µM)
MIC (Klebsiella pneumoniae [8]): 128 µg/mL (≈ 266 µM)
MIC (Escherichia coli [12]): 0.016 µg/mL (≈ 0.0333 µM)

CO/N=C(\C(=O)N[C@@H]1C(=O)N2C(C(=O)O)=C(COC(C)=O)CS[C@H]12)c1csc(N)n1 [CEFOTAXIME]
MIC (Escherichia coli [1]): 0.03 µg/mL (≈ 0.0659 µM)
MIC (Escherichia coli [2]): 0.016 µg/mL
MIC (Escherichia coli [3]): 16 µg/mL (≈ 35.1 µM)
MIC (Escherichia coli [4]): 0.016 µg/mL
MIC (Escherichia coli [5]): 0.06 µg/mL
MIC (Escherichia coli [6]): 0.06 µg/mL
MIC (Escherichia coli [7]): > 256 µg/mL
MIC (Klebsiella pneumoniae [8]): 64 µg/mL (≈ 141 µM)
MIC (Escherichia coli [9]): 0.03 µg/mL
MIC (Klebsiella pneumoniae [10]): 2 µg/mL
MIC (Escherichia coli [11]): 4 µg/mL (≈ 8.78 µM)
MIC (Escherichia coli [12]): 0.03 µg/mL (≈ 0.0659 µM)

CO[C@@]1(NC(=O)Cc2cccs2)C(=O)N2C(C(=O)O)=C(COC(N)=O)CS[C@@H]21 [CEFOXITIN]
MIC (Escherichia coli [1]): 2 µg/mL (≈ 4.68 µM)
MIC (Escherichia coli [3]): 4 µg/mL (≈ 9.36 µM)
MIC (Escherichia coli [7]): 4 µg/mL (≈ 9.36 µM)
MIC (Klebsiella pneumoniae [8]): 64 µg/mL (≈ 150 µM)
MIC (Escherichia coli [11]): 2 µg/mL (≈ 4.68 µM)
MIC (Escherichia coli [12]): 4 µg/mL (≈ 9.36 µM)

CC(C)(O/N=C(\C(=O)N[C@@H]1C(=O)N2C(C(=O)[O-])=C(C[n+]3ccccc3)CS[C@H]12)c1csc(N)n1)C(=O)O [CEFTAZIDIME]
MIC (Escherichia coli [1]): 0.06 µg/mL (≈ 0.11 µM)
MIC (Escherichia coli [2]): 0.06 µg/mL
MIC (Escherichia coli [3]): 8 µg/mL (≈ 14.6 µM)
MIC (Escherichia coli [4]): 0.06 µg/mL
MIC (Escherichia coli [5]): 0.25 µg/mL
MIC (Escherichia coli [6]): 0.25 µg/mL
MIC (Escherichia coli [7]): 64 µg/mL (≈ 117 µM)
MIC (Klebsiella pneumoniae [8]): 16 µg/mL (≈ 29.3 µM)
MIC (Escherichia coli [9]): 0.25 µg/mL
MIC (Klebsiella pneumoniae [10]): 4 µg/mL
MIC (Escherichia coli [11]): 4 µg/mL (≈ 7.32 µM)
MIC (Escherichia coli [12]): 0.13 µg/mL (≈ 0.238 µM)

CO/N=C(\C(=O)N[C@@H]1C(=O)N2C(C(=O)O)=C(COC(N)=O)CS[C@H]12)c1ccco1 [CEFUROXIME]
MIC (Escherichia coli [1]): 2 µg/mL (≈ 4.71 µM)
MIC (Escherichia coli [3]): 512 µg/mL (≈ 1210 µM)
MIC (Escherichia coli [7]): > 512 µg/mL
MIC (Klebsiella pneumoniae [8]): > 512 µg/mL
MIC (Escherichia coli [11]): 256 µg/mL (≈ 603 µM)
MIC (Escherichia coli [12]): 4 µg/mL (≈ 9.43 µM)

C[C@@H](O)[C@H]1C(=O)N2C(C(=O)O)=C(S[C@@H]3CN[C@H](C(=O)Nc4cccc(C(=O)O)c4)C3)[C@H](C)[C@H]12 [ERTAPENEM]
MIC (Escherichia coli [1]): 0.008 µg/mL (≈ 0.0168 µM)
MIC (Escherichia coli [3]): 0.016 µg/mL (≈ 0.0336 µM)
MIC (Escherichia coli [7]): 0.03 µg/mL (≈ 0.0631 µM)
MIC (Klebsiella pneumoniae [8]): 3 µg/mL (≈ 6.31 µM)
MIC (Klebsiella pneumoniae [10]): 8 µg/mL
MIC (Escherichia coli [11]): 0.016 µg/mL (≈ 0.0336 µM)
MIC (Escherichia coli [12]): 0.016 µg/mL (≈ 0.0336 µM)

C[C@@H](O)[C@H]1C(=O)N2C(C(=O)O)=C([C@H]3CCCO3)S[C@H]12 [FAROPENEM]
MIC (Escherichia coli [1]): 0.5 µg/mL (≈ 1.75 µM)
MIC (Escherichia coli [2]): 0.25 µg/mL
MIC (Escherichia coli [3]): 0.5 µg/mL (≈ 1.75 µM)
MIC (Escherichia coli [4]): 0.5 µg/mL
MIC (Escherichia coli [5]): 0.5 µg/mL
MIC (Escherichia coli [6]): 0.5 µg/mL
MIC (Escherichia coli [7]): 1 µg/mL (≈ 3.5 µM)
MIC (Klebsiella pneumoniae [8]): 4 µg/mL (≈ 14 µM)
MIC (Escherichia coli [9]): 0.5 µg/mL
MIC (Klebsiella pneumoniae [10]): 4 µg/mL
MIC (Escherichia coli [11]): 1 µg/mL (≈ 3.5 µM)
MIC (Escherichia coli [12]): 0.5 µg/mL (≈ 1.75 µM)

C[C@@H](O)[C@H]1C(=O)N2C(C(=O)O)=C(SCCNC=N)C[C@H]12 [IMIPENEM ANHYDROUS]
MIC (Escherichia coli [4]): 0.13 µg/mL
MIC (Klebsiella pneumoniae [8]): 1 µg/mL (≈ 3.34 µM)
MIC (Escherichia coli [9]): 0.25 µg/mL
MIC (Klebsiella pneumoniae [10]): 0.5 µg/mL

C[C@@H](O)[C@H]1C(=O)N2C(C(=O)O)=C(S[C@@H]3CN[C@H](C(=O)N(C)C)C3)[C@H](C)[C@H]12 [MEROPENEM]
MIC (Escherichia coli [1]): 0.03 µg/mL (≈ 0.0782 µM)
MIC (Escherichia coli [2]): 0.03 µg/mL
MIC (Escherichia coli [3]): 0.03 µg/mL (≈ 0.0782 µM)
MIC (Escherichia coli [4]): 0.016 µg/mL
MIC (Escherichia coli [5]): 0.016 µg/mL
MIC (Escherichia coli [6]): 0.03 µg/mL
MIC (Escherichia coli [7]): 0.03 µg/mL (≈ 0.0782 µM)
MIC (Klebsiella pneumoniae [8]): 4 µg/mL (≈ 10.4 µM)
MIC (Escherichia coli [9]): 0.03 µg/mL
MIC (Klebsiella pneumoniae [10]): 0.5 µg/mL
MIC (Escherichia coli [11]): 0.03 µg/mL (≈ 0.0782 µM)
MIC (Escherichia coli [12]): 0.03 µg/mL (≈ 0.0782 µM)

CCN1CCN(C(=O)N[C@@H](C(=O)N[C@@H]2C(=O)N3[C@@H]2SC(C)(C)[C@@H]3C(=O)O)c2ccccc2)C(=O)C1=O [PIPERACILLIN]
MIC (Escherichia coli [1]): 1 µg/mL (≈ 1.93 µM)
MIC (Escherichia coli [3]): 256 µg/mL (≈ 495 µM)
MIC (Klebsiella pneumoniae [13]): > 256 µg/mL
MIC (Escherichia coli [14]): 1 µg/mL
MIC (Escherichia coli [7]): > 256 µg/mL
MIC (Escherichia coli [15]): 2 µg/mL
MIC (Escherichia coli [16]): 1 µg/mL
MIC (Escherichia coli [17]): 2 µg/mL
MIC (Escherichia coli [18]): 16 µg/mL
MIC (Klebsiella pneumoniae [8]): > 256 µg/mL
MIC (Escherichia coli [11]): > 256 µg/mL
MIC (Escherichia coli [12]): 2 µg/mL (≈ 3.86 µM)
